Key:
Assay type in all cases: cell-based, human
[1] = system: A2780 cells; test: MTT assay, in vitro cytotoxicity in the dark; settings: 0.625-100 μM in PBS
Experimental: (§1) A2780 cells (human ovarian cancer cell line) and MCF-7 cells (human breast adenocarcinoma cell line) obtained from Sigma-Aldrich and American Type Culture Collection (ATCC, Rockville, MD, USA), respectively were utilized for cell culture experiments. These cells were cultured in Dulbecco's Modified Eagle's Medium (DMEM) supplemented with 10% fetal bovine serum (FBS), penicillin (100 IU/mL) and streptomycin (100 μg/mL) at 37° C. in the presence of air (95%) and CO2 (5%).
(§2) A2780 or MCF-7 cells (2×10^5 cells/mL, 100 μL) were seeded in each well of a black 96-well plate. Stock solution of ExBox^4+⊃DPP in PBS (1 mM, 10 μL) was added to each well to achieve working concentrations and incubated for 12 h. […] Following irradiation, cells were incubated overnight and then added with MTT (5 mg/mL in PBS, 10 μL). After 4 h incubation with MTT, media from each well was pipetted out, formazan crystals deposited on the plate were dissolved in 200 μL of Me2SO, and the absorbance of each well was measured using a microplate reader at 560 nm. All the samples were analyzed in quadruplicates.
(§3) The percentage cell viability was calculated using the following formula: % cell viability=(OD of treated sample/OD of untreated sample)*100.

[2] = system: MCF-7 cells; test: MTT assay, in vitro cytotoxicity in the dark; settings: 0.625-100 μM in PBS
Experimental: as §1, §2, §3

[3] = system: A2780 cells; test: In vitro PDT efficacy, MTT assay after visible light irradiation
Experimental: as §1
A2780 or MCF-7 cells (2×10^5 cells/mL, 100 μL) were seeded in each well of a black 96-well plate. Stock solution of ExBox^4+⊃DPP in PBS (1 mM, 10 μL) was added to each well to achieve working concentrations and incubated for 12 h. After incubation, wells were washed with PBS, added with 100 μL of DMEM and immediately irradiated with visible light using Max-303 Xenon Light Source (385-740 nm, Asahi Spectra) at different light intensities (5-50 mW) for 1 to 15 min. Following irradiation, cells were incubated overnight and then added with MTT (5 mg/mL in PBS, 10 μL). After 4 h incubation with MTT, media from each well was pipetted out, formazan crystals deposited on the plate were dissolved in 200 μL of Me2SO, and the absorbance of each well was measured using a microplate reader at 560 nm. All the samples were analyzed in quadruplicates.
as §3

[4] = system: A2780 cells; test: Live cell confocal microscopy, cellular uptake and co-localization
Experimental: A2780 cells (1×10^5 cells/mL, 300 μL) were plated in each well of an 8-well μ-slide (ibidi cell focus) and cultured overnight. PBS solution of ExBox^4+⊃DPP was added to each well and incubated for predetermined time points. For cellular co-localization studies, cells were washed with phenol free DMEM and stained with LysoTracker green (lysosome stain, 1:1000 dilution) or MitoSpy™ Green FM (mitochondria stain, 1:2000 dilution) or NucBlue™ Live ReadyProbes™ Reagent (nuclei stain, 1 drop). For the live-dead assay, cells were incubated with PBS solution of ExBox^4+⊃DPP irradiated for 10 min at […] light intensity, incubated overnight, and stained with Calcein AM (2 μM) and Ethidium homodimer-1 (4 μM). Plated cells were imaged within a humidified chamber using a 63× oil-immersion objective on a SP5 Leica Confocal Microscope using HyD detectors and lasers.

[5] = system: A2780 cells; test: Cellular uptake studies by flow cytometry (MFI); settings: 10 μM, 30 min to 12 h
Experimental: A2780 cells (5×10^5 cells/mL, 200 μL) were seeded in each well of a 48-well plate and treated with 10 μM PBS solution of ExBox^4+⊃DPP for 30 min, 1 h, 2 h, 6 h, and 12 h. Cells were washed with PBS, trypsinized, and incubated with 50 μL of 1:100 Zombie Aqua fixable cell viability dye for 15 min at 4° C. After incubation, cells were washed with 600 μL PBS, spun at 400 ref for 5 min, and the supernatant was discarded. Cells were then suspended in 100 μL of 2% paraformaldehyde prior to being analyzed using a BD Fortessa flow cytometer. Cells were first gated for singlet events using FSC-A vs. FSC-H, after which debris was excluded used FSC-A vs. SSC-A. Cells gated as Zombie Aqua low were considered live cells, which were then analyzed for their median fluorescence intensity (MFI) in the PE-Cy5 channel for ExBox^4+⊃DPP fluorescence, representing the amount of ExBox^4+⊃DPP taken up by each cell.

[6] = system: A2780 cells; test: Intracellular ROS generation (DCFDA assay); settings: 10 μM/0.156 J cm^−2 light dose, compared with dark or untreated cells
Experimental: Intracellular ROS generation assay was performed using DCFDA Cellular ROS Detection Assay Kit (Abeam), according to the manufacturer's instructions. Briefly, A2780 cells (2.5×10^5 cells/mL, 100 μL) were seeded in each well of a black 96-well plate and incubated with PBS solution of ExBox^4+⊃DPP for 12 h. After incubation, cells were washed with PBS and incubated with 2′,7′-dichlorofluorescin diacetate (DCFDA) (20 μM) for 45 min in the dark. Then the cells were rinsed with PBS, irradiated and fluorescence was measured (λex=485 and λem=535 nm) using a microplate reader. Control experiments with PBS solution of ExBox^4+⊃DPP treated cells and untreated cells, both with and without irradiation were performed.

Q: Which results are given for C1=Cc2nc1cc1ccc([nH]1)c(-c1ccccc1)c1nc(cc3ccc([nH]3)c2-c2ccccc2)C=C1.c1cc2ccc1C[n+]1ccc(cc1)-c1ccc(cc1)-c1cc[n+](cc1)Cc1ccc(cc1)C[n+]1ccc(cc1)-c1ccc(cc1)-c1cc[n+](cc1)C2 [ExBox^4+⊃DPP]?
A: cell viability in the dark [1]: > 95%; cell viability in the dark [2]: > 95%; killing of A2780 cells ([3]; 10 μM, 10 min visible light irradiation, 0.078 and 0.156 J cm^−2): > 95%; irradiation time to kill >90% A2780 cells ([3]; 0.078 J cm^−2 light dose, 5 μM): 10 min; killing of A2780 cells at other concentrations ([3]; 0.1, 0.05 and 0.01 μM, 10 min irradiation, 0.078 and 0.156 J cm^−2): less efficient; irradiation time to kill >90% of cells ([3]; 0.156 J cm^−2 light dose, 10 μM): 2 min; effect on cell viability (MTT) ([3]; 1.25 and 0.625 μM, light doses 0.078 and 0.156 J cm^−2): almost no effect on cell viability; A2780 cell-death (MTT) ([3]; 2.5, 5 and 10 μM, light doses 0.078 and 0.156 J cm^−2): > 90%; efficacy at light dose 0.032 J cm^−2 (MTT) ([3]; light dose 0.032 J cm^−2): efficacious only at 5 and 10 μM concentrations; effect on cell viability (MTT) ([3]; light dose, same concentrations): no effect on cell viability; cell injury under continuous irradiation (real-time confocal) ([4]; 5 min continuous irradiation, 25 mW): showed blebs on their surface; lysosomal co-localization (lysotracker) ([4]; 1 h incubation): no lysosomal co-localization; mitochondrial internalization (mitospy) ([4]; 12 h incubation, 10 μM): no mitochondrial internalization; lysosomal co-localization (lysotracker) ([4]; incubation time up to 12 h): co-localization of DPP with the green fluorescence of lysotracker was detected; lowest concentration traceable as punctate inside cells ([4]; red laser excitation, 12 h incubation): 0.1; uptake and DPP fluorescence signal (MFI) [5]: time-dependent increase; increase in intracellular ROS [6]: 20 fold

From US12433870B2, “Supramolecular photoprotection of a photosensitizer” (Northwestern University, priority 2019, dated 2025)
